Experimental data: patent US12350265B2, “Pharmaceutical composition for treating acute myeloid leukemia, containing FLT3 inhibitor and chemotherapeutic agents” (Hanmi Pharm. Co., Ltd., priority 2019, dated 2025)

Tested on: MV-4-11 cell line
Assay: MV-4-11 cell line xenografted mouse model, tumor volume / tumor growth inhibition
Type: in vivo
Conditions: nude mice xenografted with MV-4-11; Compound A 3 mg/kg/day orally once a day, days 1 to 21
Experimental: In a mouse model xenografted with the MV-4-11 cell line, comparison or combination efficacy tests were conducted of the FLT3 inhibitor 5-Chloro-N-(3-cyclopropyl-5-(((3R,5S)-3,5-dimethylpiperazine-1-yl)methyl)phenyl)-4-(6-methyl-1H-indole-3-yl)pyrimidin-2-amine (hereinafter compound A); 4-amino-1-[(2R,3S,4S,5R)-3,4-dihydroxy-5-(hydroxymethyl)oxolane-2-yl]pyrimidin-2-one (hereafter cytarabine); and ((8S,10S)-8-acetyl-10-[(2S,4S,5S,6S)-4-amino-5-hydroxy-6-methyl-oxane-2-yl]oxy-6,8,11-trihydroxy-1-methoxy-9,10-dihydro-7H-tetracene-5,12-dione (hereafter daunorubicin).
The MV-4-11 cell line was purchased from the American Type Culture Collection (ATCC). To construct a xenografted mouse model using this MV-4-11 cell line, 5-week-old female CAnN·Cg-Foxn1nu/Crljbgi mice (hereinafter, Nude mice) were purchased from Charles River Laboratories Japan, Inc.
The MV-4-11 cell line was inoculated subcutaneously in the flank with 5×10^6 cells/[…]/mouse and allowed to grow. Mice having a tumor volume of 100 to 300 mm^3 (length×width^2×0.5) were selected 1 day before administration, the average tumor volume in each group was divided into 4 groups (5 animals/group) so that the average tumor volume was almost the same, and each dose was administered for a total period of 21 days. […]

## Cc1ccc2c(-c3nc(Nc4cc(CN5C[C@@H](C)N[C@@H](C)C5)cc(C5CC5)c4)ncc3Cl)c[nH]c2c1 [compound A, 5-Chloro-N-(3-cyclopropyl-5-(((3R,5S)-3,5-dimethylpiperazine-1-yl)methyl)phenyl)-4-(6-methyl-1H-indole-3-yl)pyrimidin-2-amine]
  Tumor growth inhibition (TGI): 34.7%
